From PubChem BioAssay (NCI)
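Assay format: 96-well plates, 48-hour exposure. The concentration for 50% growth inhibition is given as GI50. The concentration for full growth arrest is given as TGI.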

How the values were obtained:
Assay in all cases: inhibition of tumour cell growth, NCI panel, 48 h
BT-549 breast = system: BT-549 breast
CCRF-CEM leukemia = system: CCRF-CEM leukemia
HS 578T breast = system: HS 578T breast
OVCAR-5 ovarian = system: OVCAR-5 ovarian
OVCAR-8 ovarian = system: OVCAR-8 ovarian
SF-539 CNS = system: SF-539 CNS
SK-OV-3 ovarian = system: SK-OV-3 ovarian
SN12C renal = system: SN12C renal
SNB-75 CNS = system: SNB-75 CNS
U251 CNS = system: U251 CNS

Row | SMILES | GI50 (BT-549 breast) [µM] | TGI (BT-549 breast) [µM] | GI50 (CCRF-CEM leukemia) [µM] | TGI (CCRF-CEM leukemia) [µM] | GI50 (HS 578T breast) [µM] | TGI (HS 578T breast) [µM] | GI50 (OVCAR-5 ovarian) [µM] | TGI (OVCAR-5 ovarian) [µM] | GI50 (OVCAR-8 ovarian) [µM] | TGI (OVCAR-8 ovarian) [µM] | GI50 (SF-539 CNS) [µM] | TGI (SF-539 CNS) [µM] | GI50 (SK-OV-3 ovarian) [µM] | TGI (SK-OV-3 ovarian) [µM] | GI50 (SN12C renal) [µM] | TGI (SN12C renal) [µM] | GI50 (SNB-75 CNS) [µM] | TGI (SNB-75 CNS) [µM] | GI50 (U251 CNS) [µM] | TGI (U251 CNS) [µM]
1 | N#Cc1c(N)nc(N2CCOCC2)c(C#N)c1-c1ccccn1 | > 100 | > 100 | > 100 | > 100 | > 100 | > 100 | > 100 | > 100 | > 100 | > 100 | > 100 | > 100 | > 85.9 | > 100 | > 100 | > 100 | > 88.5 | > 100 | > 100 | > 100
2 | NS(=O)(=O)c1ccc(N(/C=C/C(=O)C(F)(F)F)Cc2ccc(Cl)cc2)cc1 | 23.6 | 62.6 | 16 | 40.3 | 38.1 | > 100 | 28.7 | > 100 | 24.3 | 63.1 | 17.4 | 34 | 36 | > 100 | 21.1 | 56.2 | 32.2 | 65.1 | 26.5 | 75.8
3 | [N-]=[N+]=NCCCn1c2c(c3ccc([N+](=O)[O-])cc3c1=O)C(=O)c1cc(F)ccc1-2 | 5.37 | > 100 | 0.432 | 3.88 | 36.5 | > 100 | 14.4 | > 100 | 2.67 | > 100 | 2.38 | > 100 | 2.82 | 19.3 | 0.703 |  | 2.13 | 29 | 0.539 | 8.89
4 | Fc1cccc(-n2ccc(-c3ccccc3)nc2=S)c1 | 10.4 | 26 | > 85.3 | > 100 | 17.7 | 37.4 | > 94.4 | > 100 | 26.6 | > 57.7 | 17.6 | 38.9 | 1.59 | 44.9 | 3.01 | 10.4 | 26.7 | > 70.6 | 43.2 | > 100
5 | O=C1C=CC(=O)N1c1cccc(N2C(=O)C=CC2=O)c1 | 7.51 | 20.2 | 2.27 | 7.65 | 2.17 | 5.73 | 1.81 | 4.06 | 2.25 | 5.17 | 1.84 | 3.46 | 18.2 | 32.1 | 2 | 5.31 | 4.71 | 18.3 | 11.4 | 25.2
6 | Cc1cc(-c2ccccn2)cc(C)c1/C=C/c1cncc(-c2nn[nH]n2)c1 | > 25 | > 25 | > 25 | > 25 | > 25 | > 25 | > 25 | > 25 | > 25 | > 25 | > 25 | > 25 | > 25 | > 25 | > 25 | > 25 | > 25 | > 25 | > 25 | > 25
7 | O=C1c2ccccc2-c2c1c1c(O)cccc1n2Cc1ccccn1 | 26.2 | > 100 | 29.5 | > 100 | 33.6 | > 100 | 58.5 | > 100 | 74 | > 100 | 17 | 44.1 | 89 | > 100 | 63.3 | > 100 | > 100 | > 100 | 94.4 | > 100
8 | Clc1ccccc1CNc1c2ccccc2nc2ccccc12 | 4.17 | 12 | 2.74 | 50 | 5.97 | 18.1 | 2.16 | 9.09 | 2.41 | 13.3 | 1.84 | 6.71 | 5.41 | 12.6 | 1.93 | 8.27 | 2.55 | 9.63 | 2.36 | 9.7
9 | CC(CN(C)C)Oc1ccccc1NC1=C(Cl)C(=O)C(Nc2ccccc2OC(C)CN(C)C)=C(Cl)C1=O (stereo not drawn) | 1.62 | 2.98 | 0.265 | 0.882 | 1.8 | 4.53 | 0.935 | 2.44 | 0.337 | 1.71 | 1.44 | 2.76 | 2.29 | 5.43 | 0.347 | 0.853 | 1.44 | 3.01 | 1.33 | 2.73
10 | CN(C)CCNc1c2ccccc2nc2oc3ccccc3c12 | 5.67 | 18.4 |  | 0.0412 | 4.6 | 20.1 | 20.6 | 49.7 | 6.66 | > 100 | 4.03 | 15.3 | 7.11 | 28.5 | 5.66 | 34 | 12.5 | 25.8 | 7.87 | 24.7
11 | O=C(/C=C/C12c3ccccc3C(c3ccccc31)C1C(=O)NC(=O)C12)c1ccc(F)cc1 (stereo not drawn) | 1.69 | 3.42 | 2.45 | 8.42 | 2.28 | 7.84 | 1.92 | 4.12 | 1.86 | 4.84 | 1.7 | 3.11 | 2.79 | 8.03 | 1.7 | 3.29 | 1.39 | 2.92 | 1.63 | 3.07
12 | CCc1ccc(C(=Nc2ccc(N(C)C(=O)CN3CCN(C)CC3)cc2)c2c(O)[nH]c3ccc(C(=O)OC)cc23)cc1 | 1.32 | 2.65 | 0.256 | 1.16 | 0.169 | 1.1 | 1.25 | 2.57 | 0.772 | 3.21 | 0.426 | 1.56 | 0.245 | 1.23 | 0.223 | 1.61 | 0.17 | 1.52 | 0.59 | 2.02
13 | CCn1c(-c2nonc2N)nc2c(C#CC(C)(C)O)ncc(OC[C@H]3CCCNC3)c21 | 6.85 | 28.6 | 0.335 | 47.2 | 2.58 | 59.5 | 27.6 | 58.4 | 16.1 | 82.2 | 0.313 | 16.9 | 0.866 | > 82.6 | 12.7 | 51.1 | 0.0584 | 1.54 | 0.533 | 21.9
14 | CCCCCCCCCNC(=O)/C=C/c1ccc(O)c(O)c1 | 32.4 | > 100 | 0.0426 | 1.75 | 0.451 | 12.9 | 21.5 | 45.8 | 24 | 59.3 | 15.1 | 38.2 | 19.4 | 49.5 | 10.8 | 23.1 | 15.4 | 85.2 | 10.2 | 23.3
15 | COc1cc(-c2csc(NC(=O)Nc3ccc(C(F)(F)F)cc3)n2)cc(OC)c1OC | 2.22 | 6.94 | 3.49 | 18.9 | 2.17 | 5.47 | 2.64 | 9.9 | 2.97 | 10.5 | 2.28 | 6.68 | 2.68 | 8.33 | 2.62 | 8.89 | 1.43 | 5.52 | 1.97 | 4.32
16 | CN1CCN(c2ccc(NC(=O)c3cncnc3Nc3ccc(OCc4ccccn4)c(Cl)c3)cc2)CC1 | 5.18 | 11.1 | 1.86 | 10.5 | 4.17 | 13.5 | 3.5 | 9.11 | 5.4 | 15.3 | 1.09 | 3.64 | 4.79 | 11.2 | 3.93 | 8.72 | 4.58 | 9.23 | 2.64 | 8.53
17 | Oc1c(Cl)cc(Cl)cc1C(c1cc(Cl)cc(Cl)c1O)C(Cl)(Cl)Cl | 2.27 | 6.93 | 2.86 | 24.8 | 2.28 | 10.4 | 3.27 | 14.5 | 3.12 | 15.7 | 3.17 | 13 | 3.01 | 13.3 | 1.78 | 13.7 | 3.75 | 17.4 | 2.52 | 14.4
18 | CCCN(CCC)c1ccc(/C=N/NC(=O)c2cccnc2)c(OC)c1 | 28.4 | 84.8 | 25.5 | > 100 | 21.7 | 99.3 | 26.5 | > 100 | 29.9 | > 100 | 28.3 | > 100 | 21.6 | 71.3 | 36.1 | > 100 | 23.7 | 80.4 | 23.2 | > 100
